Results on five molecules are retold here after ChEMBL document CHEMBL1147191, “Structure-activity relationship studies on anti-HCV activity of ring-expanded ('fat') nucleobase analogues containing the imidazo[4,5-e][1,3]diazepine-4,8-dione ring system” (Bioorg Med Chem Lett, 2007).

Series [1] can be described thus: Cytotoxicity against Huh7 ET cells assessed as beta actin level relative to control. Format: cell-based. Details: concentration or dose not given beside the values. As to conditions: human.
For a further series, the system named is Hepatitis C virus. Nature of the series: Antiviral activity against HCV in Huh7 ET cells assessed as HCV RNA derived luciferase activity at 10 uM by replicon assay relative to control. Format: functional, Hepacivirus hominis.
The nature of series [2]: Selectivity index, ratio of toxicity against Huh7 ET cells to viral activity against HCV. It counts as functional.

Take `CCCCCCCCNc1nc(=O)c2c(nc(Br)n2Cc2ccc(OC)cc2)c(=O)[nH]1`: the Activity in series [1] is listed as 69%; in the series on Hepatitis C virus, 32%. For the same molecule, in series [2], the Selectivity index stood at 2.155.

Take `CCCCCCCCNc1nc(=O)c2c(nc(C#CCCO)n2Cc2ccc(OC)cc2)c(=O)[nH]1`: the figures for the Activity (in series [1]; with Hepatitis C virus) were 52% and 90%, respectively. For the same molecule, the Selectivity index in series [2] was 0.578.

In the case of `CCCCCCCCNc1nc(=O)c2c(nc(-c3ccccc3)n2Cc2ccc(OC)cc2)c(=O)[nH]1`, the Activity in series [1] is recorded as 82%; with Hepatitis C virus, 88%. Moreover, the Selectivity index in series [2] is 0.932.

On to `CCCCCCCCNc1nc(=O)c2c(nc(-c3ccc(OC)cc3)n2Cc2ccc(OC)cc2)c(=O)[nH]1`, for which the Activity in series [1] stood at 79%; in the series with Hepatitis C virus it was 54%. In addition, the Selectivity index in series [2] came out at 1.463.

Take `NC(=O)c1ncn([C@@H]2O[C@H](CO)[C@@H](O)[C@H]2O)n1` [RIBAVIRIN]: the Activity came out at 12% in series [1] and 89% in the series on Hepatitis C virus. In series [2], the Selectivity index is recorded as 0.42.
